In this assay the test system is glucocorticoid receptor. In words: One or more of the above assays (GR binding and GR cell assays; not specified which). The class given is cell-based. As to conditions: in one or more of the above assays. The method, then:
This assay uses fluorescence polarization (FP) to quantitate the ability of test compounds to compete with tetramethyl rhodamine (TAMRA)-labeled dexamethasone for binding to a human glucocorticoid receptor (GR) complex prepared from an insect expression system. The assay buffer was: 10 mM TES, 50 mM KCl, 20 mM Na2MoO4.2H2O, 1.5 mM EDTA, 0.04% w/v CHAPS, 10% v/v glycerol, 1 mM dithiothreitol, pH 7.4. Test compounds were dissolved to 1 mM in neat DMSO and then further diluted to 10×assay concentration in assay buffer supplemented with 10% v/v DMSO. Test compounds were serially diluted at 10×assay concentrations in 10% DMSO-containing buffer in 96-well polypropylene plates. […] Positive controls were reaction mixtures containing no test compound; negative controls (blanks) were reaction mixtures containing 0.7 μM to 2 μM dexamethasone. […] IC50 values were determined by iterative non-linear curve fitting of the FP signal data to a 4-parameter logistic equation.
B. Glucocorticoid Receptor Cell Assays
1. Induction of Aromatase in Fibroblasts (Cell Assay for Transactivation)
Dexamethasone, a synthetic ligand to the glucocorticoid receptor (GR), induces expression of aromatase in human foreskin fibroblast cells. The activity of aromatase is measured by the conversion of testosterone to estradiol in culture media.
On the day of the experiment, the media in the wells is replaced with fresh media. Cells are treated with test compounds to final concentrations of 10^−5 M to 10 ^−8 M, and testosterone to a final concentration of 300 ng/mL. Each well has a total volume of 100 μL. Samples are made in duplicates. Control wells include: (a) wells that receive testosterone only, and (b) wells that receive testosterone plus 2 μM of dexamethasone to provide maximum induction of aromatase. Plates are incubated at 37° C. overnight (15 to 18 hours), and supernatants are harvested at the end of incubation. […] The amount of estradiol is inversely proportional to the ELISA signals in each well. The extent of aromatase induction by test compounds is expressed as a relative percentage to dexamethasone. EC50 values of test compounds are derived by non-linear curve fitting.
2. Inhibition of IL-6 Production in Fibroblasts (Cell Assay for Transrepression)
Human foreskin fibroblast cells produce IL-6 in response to stimulation by pro-inflammatory cytokine IL-1.
On the next day, media in the wells is replaced with fresh media. Cells are treated with IL-1 (rhIL-1α, R&D Systems Cat. No. 200-LA) to a final concentration of 1 ng/mL, and with test compounds to final concentrations of 10 ^−5 M to 10 ^−8 M, in a total volume of 200 μL per well. Samples are done in duplicates. […] Positive control wells receive IL-1 only and represent maximum (or 100%) amount of IL-6 production. Plates are incubated at 37° C. overnight (15 to 18 hours), and supernatants are harvested at the end of incubation. IL-6 levels in the supernatants are determined by the ELISA kits for IL-6 (MedSystems Diagnostics GmbH, Vienna, Austria, Cat. No. BMS213TEN) according to manufacture's instructions. The extent of inhibition of IL-6 by test compounds is expressed in percentage relative to positive controls. IC50 values of test compounds are derived by non-linear curve fitting.
Evaluation of agonist or antagonist activity of compounds binding to the glucocorticoid receptor may be determined by any of the assays.
3. Modulation of Tyrosine Aminotransferase (TAT) Induction in Rat Hepatoma Cells
Testing of compounds for agonist or antagonist activity in induction of tyrosine aminotransferase (TAT) in rat hepatoma cells.
H4-II-E-C3 cells were incubated overnight in 96 well plates (20,000 cells/100 μL/well) in MEM medium containing 10% heat inactivated FBS and 1% nonessential amino acids. On the next day, cells were stimulated with the indicated concentrations of dexamethasone or test compound (dissolved in DMSO, final DMSO concentration 0.2%) for 18 hours. Control cells were treated with 0.2% DMSO.

Take `COc1c(C(C)(C)CC(O)(Cc2ccc(C#N)cc2Cl)C(F)(F)F)ccc2ccccc12` (stereo not drawn) [3-Chloro-4-[2-hydroxy-4-(1-methoxynaphthalen-2-yl)-4-methyl-2-trifluoromethylpentyl]benzonitrile]: the “activity as agonists of the glucocorticoid receptor function” value (from here on “activity”) is on record as “activity as agonists”. As to `Cc1cccc(C(C)(C)CC(O)(Cc2ccc(C#N)cc2Cl)C2CC2)c1` (stereo not drawn) [3-Chloro-4-[2-cyclopropyl-2-hydroxy-4-methyl-4-(3-methylphenyl)pentyl]benzonitrile], the “activity” value is “activity as agonists”. Consider `Cc1ccc(C(C)(C)CC(O)(Cc2ccc(C#N)cc2Cl)C(F)(F)F)cc1` (stereo not drawn) [3-Chloro-4-(2-hydroxy-4-methyl-4-p-tolyl-2-trifluoromethylpentyl)benzonitrile], for which the “activity” value is reported as “activity as agonists”. Consider `CC(C)(CC(O)(Cc1ccc(C#N)cc1Cl)C1CC1)c1cccc2c1OCC2` (stereo not drawn) [3-Chloro-4-[2-cyclopropyl-4-(2,3-dihydrobenzofuran-7-yl)-2-hydroxy-4-methylpentyl]benzonitrile], for which the “activity” value was “activity as agonists”. For the molecule `Cc1ccc(F)cc1C(C)(C)CC(O)(Cc1ccc(C#N)cc1Cl)C(F)(F)F` (stereo not drawn) [3-Chloro-4-[4-(5-fluoro-2-methylphenyl)-2-hydroxy-4-methyl-2-trifluoromethylpentyl]benzonitrile], the “activity” value was “activity as agonists”.

As to `CC(C)(CC(O)(Cc1ccc(C#N)c2ccccc12)C(F)(F)F)c1cccc2c1OCC2` (stereo not drawn) [4-[4-(2,3-Dihydrobenzofuran-7-yl)-2-hydroxy-4-methyl-2-trifluoromethylpentyl]naphthalene-1-carbonitrile], the “activity” value is “activity as agonists”. For `COc1ccc(F)cc1C(C)(C)CC(O)(Cc1ccc(Cl)cc1)C(F)(F)F` (stereo not drawn) [2-(4-Chlorobenzyl)-1,1,1-trifluoro-4-(5-fluoro-2-methoxyphenyl)-4-methylpentan-2-ol], the “activity” value is given as “activity as agonists”. `CC(C)(CC(O)(Cc1ccc(C(=O)C2CC2)cc1Cl)C1CC1)c1cccc2c1OCC2` (stereo not drawn) [{3-Chloro-4-[2-cyclopropyl-4-(2,3-dihydrobenzofuran-7-yl)-2-hydroxy-4-methylpentyl]phenyl}cyclopropylmethanone]: the “activity” value is “activity as agonists”.

Regarding `COc1cccc(C(C)(C)CC(O)(Cc2ccc(C#N)cc2Cl)C(F)(F)F)c1` (stereo not drawn) [3-Chloro-4-[2-hydroxy-4-(3-methoxyphenyl)-4-methyl-2-trifluoromethylpentyl]benzonitrile], the “activity” value was “activity as agonists”.

For `COc1ccc(F)cc1C1(CC(O)(Cc2ccc(C#N)cc2Cl)C(F)(F)F)CC1` (stereo not drawn) [3-Chloro-4-{3,3,3-trifluoro-2-[1-(5-fluoro-2-methoxyphenyl)cyclopropylmethyl]-hydroxypropyl}benzonitrile], the “activity” value was “activity as agonists”. Regarding `COc1ccc(F)cc1C(C)(C)CC(O)(Cc1ccc(/C=N/O)cc1Cl)C(F)(F)F` (stereo not drawn) [3-Chloro-4-[4-(5-fluoro-2-methoxyphenyl)-2-hydroxy-4-methyl-2-trifluoromethylpentyl]benzaldehyde oxime], the “activity” value is reported as “activity as agonists”. On to `COc1ccc(F)cc1C(C)(C)CC(O)(Cc1ccc(C(C)=O)cc1Cl)C(F)(F)F` (stereo not drawn) [1-{3-Chloro-4-[4-(5-fluoro-2-methoxyphenyl)-2-hydroxy-4-methyl-2-trifluoromethylpentyl]phenyl}ethanone], for which the “activity” value is “activity as agonists”. As for `COc1ccc(F)cc1C(C)(C)CC(O)(Cc1cc(C)c(C#N)c(C)c1)C(F)(F)F` (stereo not drawn) [4-[4-(5-Fluoro-2-methoxyphenyl)-2-hydroxy-4-methyl-2-trifluoromethylpentyl]-2,6-dimethylbenzonitrile], the “activity” value is recorded as “activity as agonists”.

Consider `Cc1cccc(C(C)(C)CC(O)(Cc2ccc(C#N)cc2Cl)C(F)(F)F)c1` (stereo not drawn) [3-Chloro-4-(2-hydroxy-4-methyl-4-m-tolyl-2-trifluoromethylpentyl)benzonitrile], for which the “activity” value is reported as “activity as agonists”. With `CC(C)(CC(O)(Cc1ccc(C#N)cc1Cl)C(F)(F)F)c1cc(O)cc(O)c1` (stereo not drawn) [3-Chloro-4-[4-(3,5-dihydroxyphenyl)-2-hydroxy-4-methyl-2-trifluoromethylpentyl]benzonitrile], the “activity” value is “activity as agonists”. As to `CC(C)(CC(O)(Cc1ccc(C#N)cc1Cl)C(F)(F)F)c1cc(Br)cc2c1OCC2` (stereo not drawn) [4-[4-(5-Bromo-2,3-dihydrobenzofuran-7-yl)-2-hydroxy-4-methyl-2-trifluoromethylpentyl]-3-chlorobenzonitrile], the “activity” value is listed as “activity as agonists”. With `CCc1cccc(C(C)(C)CC(O)(Cc2ccc(C#N)cc2Cl)C(F)(F)F)c1O` (stereo not drawn) [3-Chloro-4-[4-(3-ethyl-2-hydroxyphenyl)-2-hydroxy-4-methyl-2-trifluoromethylpentyl]benzonitrile], the “activity” value is reported as “activity as agonists”. On to `CC(C)(CC(O)(Cc1ccc(C#N)cc1Cl)C(F)(F)F)c1cc(F)ccc1O` (stereo not drawn) [3-Chloro-4-[4-(5-fluoro-2-hydroxyphenyl)-2-hydroxy-4-methyl-2-trifluoromethylpentyl]benzonitrile], for which the “activity” value is on record as “activity as agonists”. Take `CC(C)(CC(O)(Cc1ccc(C#N)cc1Cl)C(F)(F)F)c1ccccc1C(F)(F)F` (stereo not drawn) [3-Chloro-4-[2-hydroxy-4-methyl-2-trifluoromethyl-4-(2-trifluoromethylphenyl)pentyl]benzonitrile]: the “activity” value was “activity as agonists”. The result for `COc1ccc(F)cc1C(C)(C)CC(O)(Cc1cc(Cl)cc(Cl)c1Cl)C(F)(F)F` (stereo not drawn) [1,1,1-Trifluoro-4-(5-fluoro-2-methoxyphenyl)-4-methyl-2-(2,3,5-trichlorobenzyl)pentan-2-ol] reads “activity as agonists”; that for `CC(C)(CC(O)(Cc1ccc(C#N)cc1Cl)C(F)(F)F)c1ccc2c(c1)CCO2` (stereo not drawn) [3-Chloro-4-[4-(2,3-dihydrobenzofuran-5-yl)-2-hydroxy-4-methyl-2-trifluoromethylpentyl]benzonitrile], “activity as agonists”. As to `Cc1cc(CC(O)(CC(C)(C)c2cc(F)ccc2O)C(F)(F)F)cc(C)c1C#N` (stereo not drawn) [4-[4-(5-Fluoro-2-hydroxyphenyl)-2-hydroxy-4-methyl-2-trifluoromethylpentyl]-2,6-dimethylbenzonitrile], the “activity” value is listed as “activity as agonists”. Turning to `COc1ccc(F)cc1C(C)(C)CC(O)(Cc1ccc(/C(C)=N/O)cc1Cl)C(F)(F)F` (stereo not drawn) [1-{3-Chloro-4-[4-(5-fluoro-2-methoxyphenyl)-2-hydroxy-4-methyl-2-trifluoromethylpentyl]phenyl}ethanone oxime], the “activity” value is “activity as agonists”. As to `COc1cc(OC)cc(C(C)(C)CC(O)(Cc2ccc(C#N)cc2Cl)C(F)(F)F)c1` (stereo not drawn) [3-Chloro-4-[4-(3,5-dimethoxyphenyl)-2-hydroxy-4-methyl-2-trifluoromethylpentyl]benzonitrile], the “activity” value was “activity as agonists”.

The values are drawn from patent US7268152B2, “Glucocorticoid mimetics, methods of making them, pharmaceutical compositions, and uses thereof” (Boehringer Ingelheim Pharmaceuticals, Inc., priority 2002, dated 2007).
